We go through nine substances from patent US10858688B2, “Observation method using binding and dissociation probe” (KYOTO UNIVERSITY, priority 2015, dated 2020).

Where no end group is shown, it is not given here.

The test system of test [1] is microtubule. Description: Measurement of binding half-life of probe-target complex. The following applies: fixed XTC cell, single exponential fit. On the set-up: species or system Xenopus laevis. An excerpt: (§1) A probe and a target substance have the following binding characteristics. […] The above half-life herein is preferably a half-life of a probe-target complex formed by binding between a probe and a target substance in a case when a medium containing a probe and a sample containing a target substance that is to be observed are brought into contact under a condition for performing an imaging step. […] Measurement procedures for the half-life are as below. […] Ndissociation is a cumulative relative frequency of a probe that dissociated. A cumulative relative frequency is a ratio of the speckles that disappeared within a given period of time to the total number of measured speckles (i.e. probes) (i.e. probes that dissociated within a given period of time), and represents the total number as 1. Then, by fitting the above complementary cumulative relative frequency function with an exponent function, that half-life is calculated.
The measurement of binding half-life, whose result is shown in table 1, was performed in the following procedures. Speckle images of 10000 frames picked up in the localization test were used in order to measure a period of time between the appearance of a probe that has bound to a target in a speckle image and disappearance through dissociation in a semi-manual mode by using Speckle TrackerJ, an ImageJ plug-in. In case of for example picking up of images with an exposure time of 50 ms and at a frame rate of 20 Hz, it is assumed that a period of time between the appearance and disappearance of a speckle that is observed in only one of consecutive frames is 50 ms and a period of time between the appearance and disappearance of a speckle observed in only two consecutive frames is 100 ms. […] Ndissociation is a cumulative relative frequency of probes that dissociated. Then, by fitting the complementary cumulative relative frequency function with an exponent function, the half-life was calculated. However, the binding half-life with respect to an actin filament of Atto488-Lifeact was measured by using a method that is described in detail in the section for FIG. 9 in the Brief Description of the Drawings.

Test [2] deals with microtubule. In words: IRIS image test (reconstruction image). To be noted: reconstruction from 10000 frames with DAOSTORM
On the set-up: key: “IRIS image” is positive (P) when above criterion (3) is met. Format: cell-based, Xenopus laevis. How it is done:
(§2) […] It is possible to reconstruct an image of a target substance by integrating the central positions of the respective speckles. The IRIS image test of the above (3) whose result is described in table 1 was performed in the following procedures. By using all the speckle images of 10000 frames picked up in the localization test, the central point of a probe that has bound to a target in each frame of the speckle images was determined with nanometer accuracy by using DAOSTORM. By adding a large number of pieces of central point information in the fluorescence images of 10000 frames, a reconstruction image (observation image) was generated. Whether or not a distribution of a target molecule was able to be observed in that reconstruction image was determined, and when a distribution of a target molecule was observed, the result was treated as P (positive).

Test [3] concerns microtubule. Description: Washability test of probe candidates. Format: cell-based, Xenopus laevis. On the set-up: key: “washability” is positive (P) when above criterion (2) is met. The following applies: speckles equal to or less than about 10% after switching imaging solution 10 to 20 times. How it is done:
(§3) (2) It is possible to wash and remove a probe after SiMS imaging (imaging step);
(§4) The […] of the above (2), whose result is shown in table 1, was performed in the following procedures. […] This switching of imaging solution was conducted slowly so that the observation position would not shift. Next, an imaging solution not containing a probe and not containing the active oxygen-scavenging mix was switched 10 to 20 times. After the switching, for confirmation, for an XCT cell sample in the observation chamber, speckle images of 10 frames were picked up under a similar condition to that of the localization test described in the previous paragraph, and when the number of speckles confirmed in the speckle images (i.e., the number of probes that had bound) became sufficiently smaller (equal to or less than about 10%) than the number of the speckles in the speckle images before the washing operation, washing was determined to be possible and the result was treated as P (positive).

Test [4] concerns microtubule. In words: Localization test of probe candidates (integrated SiMS images). In kind it is cell-based, Xenopus laevis. On the set-up: key: “localization” is positive (P) when above criterion (1) is met. The following applies: fixed, permeabilized XTC cell; lysate supernatant of EGFP fused probe; TIRF, 10000 frames. As for the experimental part:
(§5) HEK (Human embryonic kidney)-293F cells were transfected with a plasmid encoding a probe candidate protein tagged with FLAG-EGFP or 3×FLAG-EGFP. […] Centrifugal separation was performed on the lysate and the supernatant liquid was collected. In order to perform screening for a probe for IRIS, the binding capacity of a probe candidate in the supernatant liquid with respect to the structure of an XCT cell that was fixed with paraformaldehyde (PFA) and that received a permeabilization process was tested. The appearance and disappearance of single molecule speckles (Single-molecule speckles, SiMS) in the structure was tested. Screening was performed for a probe for IRIS in accordance with the following criteria:
(§6) (1) It is possible to confirm a distribution of target substances in the structure in an image resulting from adding SiMS images;
(§7) The localization test of the above (1), whose result is shown in table 1, was performed in the following procedures. First, the supernatant liquid of lysate of a cell that expressed each probe candidate was brought into contact with an XCT cell that was fixed on a coverglass and that received a permeabilization process. […] The obtained speckle images of 10000 frames were integrated so as to confirm whether or not a distribution of target substances in the cell (microtubule, intermediate filament, focal adhesion or actin filament) was able to be confirmed. When a distribution of a target substances was able to be confirmed, the result of the localization test was treated as P (positive).

The test system of test [5] is microtubule. Description: Labeling patterns of microtubules in TIRF IRIS images. In kind it is cell-based, Xenopus laevis. The following applies: for labeling of microtubule plus end (tip): when EB1 existed (cold methanol-preprocessed cells). An excerpt:
FIG. 12 show labeling patterns of microtubules by a CLIP-170 fragment (amino acid residues 3-309 of sequence number 12), an APC fragment (amino acid residues 2536-2843 of sequence number 14), a MAP4 fragment (amino acid residues 1-908 of sequence number 4) and Tau isoform 3 (full length of sequence number 5). The patterns are different depending upon procedures for fixing cells. FIG. 12 (a) and FIG. 12 (b) show live-cell imaging during the fixation operation. In FIG. 12 (a), the accumulation of EB1-EGFP at the tips of microtubules disappeared in a process by 3.7% PFA and 0.5% Triton-X 100. In FIG. 12 (b), EB1-EGFP was fixed in a state in which it was accumulated at the tips of the microtubules in a process by cold methanol. […] With these probes, IRIS images of the entire microtubules were obtained. […] The microtubule tips were labeled strongly with a CLIP-170 fragment while they were weakly labeled with a MAP4 fragment and Tau isoform 3 (see merged images in the lower tier).
A plurality of IRIS probes for a microtubule and a focal adhesion visualized different sites of their structure bodies. […] The result corresponds to in-vitro data (document 26). Further, Paxillin and the Src fragment visualized different portions of focal adhesion (FIG. 13). Thus, IRIS can also be applied to mapping analysis of a site in which a plurality of protein fragments bind. Development of an IRIS probe that binds to a molecule in a specific state also makes it is possible to perform super-resolution mapping on the molecule in the specific state.

The test system of the next test is actin filament. The following applies: document 10; cited from earlier work.
Test [6] concerns focal adhesion. Description: IRIS image test (reconstruction image). Format: cell-based, Xenopus laevis. On the set-up: key: “IRIS image” is positive (P) when above criterion (3) is met. The following applies: reconstruction from 10000 frames with DAOSTORM
As for the experimental part: as §2

Test [7] has as its system focal adhesion. In words: Washability test of probe candidates. In kind it is cell-based, Xenopus laevis. On the set-up: key: “washability” is positive (P) when above criterion (2) is met. The following applies: speckles equal to or less than about 10% after switching imaging solution 10 to 20 times. As for the experimental part:
as §3, §4

The test system of test [8] is focal adhesion. In words: Measurement of binding half-life of probe-target complex. On the set-up: species or system Xenopus laevis. To be noted: fixed XTC cell, single exponential fit.
Description: as §1
The measurement of binding half-life, whose result is shown in table 1, was performed in the following procedures. […] Then, by fitting the complementary cumulative relative frequency function with an exponent function, the half-life was calculated. However, the binding half-life with respect to an actin filament of Atto488-Lifeact was measured by using a method that is described in detail in the section for FIG. 9 in the Brief Description of the Drawings.

For test [9], the system named is focal adhesion. Description: Localization test of probe candidates (integrated SiMS images). In kind it is cell-based, Xenopus laevis. On the set-up: key: “localization” is positive (P) when above criterion (1) is met. To be noted: fixed, permeabilized XTC cell; lysate supernatant of EGFP fused probe; TIRF, 10000 frames. As for the experimental part: as §5, §6, §7

In turn, “APC 2536-2843: EGFP fused (C terminus) human APC fragment, amino acid residues 2536-2843 of sequence number 14” displayed an HALF-LIFE in the test with microtubule [1] of 0.1 s. Further, in the test with microtubule [2], the “IRIS IMAGE” value is “P”. For the same substance, the WASHABILITY result in the test with microtubule [3] is given as “P”. Also, the LOCALIZATION result in the test on microtubule [4] is reported as “P”.
Turning to “APC 2781-2819: EGFP fused (N terminus) human APC fragment, amino acid residues 2781-2819 of sequence number 14 ({EGFP}-VTPFNYNPSPRKSSADSTSARPSQIPTPVNNNTKKRDSK; UniProt P25054 2781-2819, looked up, fragment)”, the HALF-LIFE with microtubule [1] was 0.027 s. Further, in the test on microtubule [2], the “IRIS IMAGE” value is reported as “P”. Besides, in the test on microtubule [3], the WASHABILITY entry is on record as “P”. The LOCALIZATION result in the test on microtubule [4] is on record as “P”.
For “CLIP-170: EGFP fused (N terminus) rat CLIP-170 fragment, amino acid residues 3-309 of sequence number 12”, the HALF-LIFE with microtubule [1] worked out at 0.044 s. Moreover, the “IRIS IMAGE” value in the test on microtubule [2] is listed as “P”. In addition, the WASHABILITY entry in the test with microtubule [3] is recorded as “P”. Moreover, in the test on microtubule [5] (when EB1 did not exist (PFA and Triton-X 100)), the labeling of microtubule result is given as “continuously labeled the entire microtubule”. Also, the “labeling of microtubule plus end (tip)” value with microtubule [5] was “strongly labeled”. Moreover, the LOCALIZATION result in the test on microtubule [4] is “P”.
With “Lifeact: widely used actin marker; short peptide that stains an actin filament in a live cell or a fixed cell (document 10) (MGVADLIKKFESISKEE)”, the “time of being exchanged on an actin filament” value with actin filament is at most 0.4 s.
In the test on microtubule [1], “MAP4 1-908: EGFP fused (N terminus) mouse MAP4 fragment, amino acid residues 1-908 of sequence number 4” showed an HALF-LIFE of 0.109 s. Moreover, in the test on microtubule [2], the “IRIS IMAGE” value is “P”. In addition, the WASHABILITY result with microtubule [3] is recorded as “P”. For the same substance, the “labeling of microtubule plus end (tip)” value in the test with microtubule [5] is “weakly visualized”. For the same substance, in the test with microtubule [4], the LOCALIZATION entry is given as “P”.
Regarding “Paxillin 1-557: EGFP fused (N terminus) human Paxillin, full length 1-557 of sequence number 15”, the “IRIS IMAGE” value with focal adhesion [6] is “P”. Further, in the test with focal adhesion [7], the WASHABILITY entry was “P”. Also, in the test with focal adhesion [8], the HALF-LIFE was found to be 0.196 s. For the same substance, the LOCALIZATION entry with focal adhesion [9] was “P”.
For “Paxillin 54-557: EGFP fused (N terminus) human Paxillin fragment, residues 54-557 of sequence number 15”, in the test with focal adhesion [6], the “IRIS IMAGE” value was “P”. Moreover, the WASHABILITY entry in the test with focal adhesion [7] is on record as “P”. For the same substance, in the test on focal adhesion [8], the HALF-LIFE is 0.246 s. Moreover, the LOCALIZATION entry in the test with focal adhesion [9] was “P”.
In the test with microtubule [1], “TAU ISOFORM 3: EGFP fused (N terminus) human Tau isoform 3, full length 1-383 of sequence number 5” showed an HALF-LIFE of 0.11 s. Moreover, in the test on microtubule [2], the “IRIS IMAGE” value is “P”. In the test on microtubule [3], the WASHABILITY entry was “P”. Also, the “labeling of microtubule plus end (tip)” value in the test with microtubule [5] is recorded as “weakly visualized”. Moreover, in the test with microtubule [4], the LOCALIZATION entry was “P”.
In the test on microtubule [1], “TAU ISOFORM 4: EGFP fused (N terminus) human Tau isoform 4, 1-352 of sequence number 6” had an HALF-LIFE of 0.06 s. Besides, in the test with microtubule [2], the “IRIS IMAGE” value is reported as “P”. The WASHABILITY entry in the test on microtubule [3] is recorded as “P”. In addition, the LOCALIZATION result in the test on microtubule [4] is given as “P”.
